Laboratory results as given in publication PMC4774911, “Biochemical Screening of Five Protein Kinases from Plasmodium falciparum against 14,000 Cell-Active Compounds” (PLoS ONE, 2016).
Read-outs that look alike come from different tables or passages of the source.

How the values were obtained:
[1] = molecular target: T1, Plasmodium falciparum calcium-dependent protein kinase 1 (CDPK1) (Plasmodium falciparum, UniProt P62344); assay: CDPK1 Kinase-Glo ATP-consumption screen and dose-response; format: biochemical; settings: hits below 1 uM; read-out: CDPK1 IC50
T1 construct: 6-Histidine (N); made in house
T1 sequence (P62344 whole entry): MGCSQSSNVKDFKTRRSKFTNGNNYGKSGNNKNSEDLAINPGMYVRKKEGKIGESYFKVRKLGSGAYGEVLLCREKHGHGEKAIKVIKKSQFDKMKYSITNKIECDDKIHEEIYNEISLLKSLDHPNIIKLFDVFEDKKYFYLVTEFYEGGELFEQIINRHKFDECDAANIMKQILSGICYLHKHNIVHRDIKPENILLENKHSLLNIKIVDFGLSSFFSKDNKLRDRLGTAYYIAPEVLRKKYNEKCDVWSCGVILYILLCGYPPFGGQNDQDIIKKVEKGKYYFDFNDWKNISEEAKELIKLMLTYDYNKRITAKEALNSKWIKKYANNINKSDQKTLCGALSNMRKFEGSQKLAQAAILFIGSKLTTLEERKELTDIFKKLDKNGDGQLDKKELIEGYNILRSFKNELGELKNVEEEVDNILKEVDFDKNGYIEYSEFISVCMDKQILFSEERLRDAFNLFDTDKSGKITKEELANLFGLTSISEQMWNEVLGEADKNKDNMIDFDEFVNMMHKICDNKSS
Method in brief: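 ATP consumption by recombinant P. falciparum CDPK4 or CDPK1 measured as residual ATP by Kinase-Glo luminescence, with 40 μM Syntide-2 substrate and 90 min incubation stopped with 5 mM EGTA. Single-point screen at 1 μM final, followed by dose-response; no-substrate wells as negative control.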

[2] = molecular target: T2, Plasmodium falciparum protein kinase 6 (PK6) (Plasmodium falciparum, UniProt Q8IDW1); assay: biochemical; settings: hits below 1 uM; read-out: PK6 IC50
T2 construct: 6-Histidine (N); made in house
T2 sequence (Q8IDW1 1-305): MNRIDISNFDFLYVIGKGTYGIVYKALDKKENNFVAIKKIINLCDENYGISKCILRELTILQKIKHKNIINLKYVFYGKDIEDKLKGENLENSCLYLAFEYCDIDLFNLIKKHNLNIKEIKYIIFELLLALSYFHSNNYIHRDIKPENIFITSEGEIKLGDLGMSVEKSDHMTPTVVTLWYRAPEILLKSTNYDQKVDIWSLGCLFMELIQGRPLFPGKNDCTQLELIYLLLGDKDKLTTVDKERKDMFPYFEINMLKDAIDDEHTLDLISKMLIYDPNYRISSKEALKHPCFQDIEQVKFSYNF

HepG2 cells = settings: cited from earlier work
P. falciparum 3D7 cells = settings: 3D7, cited from earlier work
DD2 [3] = system: DD2; design: method as in downloaded from ChEMBL; settings: ref downloaded from ChEMBL; cited from earlier work
3D7 PFLDH [4] = system: 3D7 PFLDH; design: method as in downloaded from ChEMBL; settings: ref downloaded from ChEMBL; cited from earlier work
[5] = molecular target: T3, Plasmodium falciparum calcium-dependent protein kinase 4 (CDPK4) (Plasmodium falciparum, UniProt Q8IBS5); assay: CDPK4 Kinase-Glo ATP-consumption screen and dose-response; format: biochemical; settings: hits below 1 uM
T3 construct: 6-Histidine (N); made in house
T3 sequence (Q8IBS5 1-528): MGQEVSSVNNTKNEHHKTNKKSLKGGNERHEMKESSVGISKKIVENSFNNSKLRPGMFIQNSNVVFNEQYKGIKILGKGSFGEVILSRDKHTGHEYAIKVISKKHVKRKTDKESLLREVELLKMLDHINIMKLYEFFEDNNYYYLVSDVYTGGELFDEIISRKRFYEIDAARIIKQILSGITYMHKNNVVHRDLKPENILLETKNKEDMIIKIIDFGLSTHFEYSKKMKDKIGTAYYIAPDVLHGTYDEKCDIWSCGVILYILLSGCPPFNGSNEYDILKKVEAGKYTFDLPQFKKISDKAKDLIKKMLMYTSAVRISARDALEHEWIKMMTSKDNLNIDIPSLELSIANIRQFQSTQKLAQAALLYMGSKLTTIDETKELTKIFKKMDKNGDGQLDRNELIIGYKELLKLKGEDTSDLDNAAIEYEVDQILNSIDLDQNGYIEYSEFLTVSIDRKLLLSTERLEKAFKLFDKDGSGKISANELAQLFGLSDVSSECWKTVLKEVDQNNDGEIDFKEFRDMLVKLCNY
Method: Biochemical assays were performed in white 384-well plates (Nunc). Liquid transfers were done manually with 8-channel pipets. Compounds were initially tested in a single-point screen (final concentration 1 μM). […] The catalytic activity of each kinase was considered proportional to ATP consumed, as determined from measurements of residual [ATP] with the luciferase-based reagent Kinase-Glo (Promega) following incubation. Luminescence (proportional to residual [ATP]) was measured on the plate readers FLx800 (BioTek Instruments, Winooski, VT, USA) and MicroBeta^2 (PerkinElmer, Waltham, MA, USA). Incubation times were chosen to ensure near-complete ATP depletion in the absence of inhibition, thus maximizing the difference in signal between inhibited and uninhibited wells.
40 μM Syntide-2 was used as a substrate; BKI-1 [14] was used as a control inhibitor, while reaction mixtures lacking Syntide-2 were included as an additional negative control. Incubation time was 90 minutes. Reactions were terminated by adding excess EGTA (5 mM), which sequesters Ca^2+ and halts calcium-dependent kinase activity.

PKG = PKG (Plasmodium falciparum, UniProt Q8I719); assay: PKG IC50 (supplementary data file); format: biochemical
Sequence of PKG (Q8I719 whole entry): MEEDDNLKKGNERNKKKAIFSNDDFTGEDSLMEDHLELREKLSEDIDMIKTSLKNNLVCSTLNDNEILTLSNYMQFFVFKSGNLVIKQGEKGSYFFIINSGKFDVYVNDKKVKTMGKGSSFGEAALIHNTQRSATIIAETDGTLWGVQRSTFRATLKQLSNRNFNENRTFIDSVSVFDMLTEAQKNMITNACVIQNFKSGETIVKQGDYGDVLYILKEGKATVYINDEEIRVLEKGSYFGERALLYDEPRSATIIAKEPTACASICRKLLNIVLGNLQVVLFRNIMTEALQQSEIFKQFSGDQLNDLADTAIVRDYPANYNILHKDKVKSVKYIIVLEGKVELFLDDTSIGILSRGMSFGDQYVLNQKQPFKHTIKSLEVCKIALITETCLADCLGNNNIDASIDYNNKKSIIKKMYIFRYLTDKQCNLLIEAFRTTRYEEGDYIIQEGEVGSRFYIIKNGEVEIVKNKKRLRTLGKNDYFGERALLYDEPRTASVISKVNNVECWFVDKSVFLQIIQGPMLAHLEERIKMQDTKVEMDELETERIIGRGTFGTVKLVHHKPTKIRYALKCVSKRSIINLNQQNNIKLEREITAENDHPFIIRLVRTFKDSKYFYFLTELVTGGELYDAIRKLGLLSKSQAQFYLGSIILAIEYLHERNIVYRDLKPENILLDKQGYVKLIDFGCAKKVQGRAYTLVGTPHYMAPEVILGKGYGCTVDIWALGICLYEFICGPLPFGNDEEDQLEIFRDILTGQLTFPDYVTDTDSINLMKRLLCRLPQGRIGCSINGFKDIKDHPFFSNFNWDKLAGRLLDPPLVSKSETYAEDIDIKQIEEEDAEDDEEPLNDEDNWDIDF
Description: Supplement pone.0149996.s003.xls, sheet "combined_1_sorted"

DD2 [6] = system: DD2; design: method as in F.J. Gamo et al., Nature 2010; settings: downloaded from ChEMBL, ref F.J. Gamo et al., Nature 2010; cited from earlier work
3D7 PFLDH [7] = system: 3D7 PFLDH; design: method as in F.J. Gamo et al., Nature 2010; concentration or dose not given beside the values; settings: downloaded from ChEMBL, ref F.J. Gamo et al., Nature 2010; cited from earlier work
[8] = HEPG2, ref downloaded from ChEMBL
[9] = HepG2, downloaded from ChEMBL, ref F.J. Gamo et al., Nature 2010
[10] = downloaded from ChEMBL, ref F.J. Gamo et al., Nature 2010

Row | SMILES | IC50 [1] [nM] | IC50 [2] [nM] | PCT_INHIB_HEPG2 (HepG2 cells; [8]) | PCT_IHB_3D7 (P. falciparum 3D7 cells; ref downloaded from ChEMBL) | pXC50_3D7 (P. falciparum 3D7 cells; ref downloaded from ChEMBL) | PCT_INHB_DD2 (DD2 [3]) | PCT_INHIB_3D7_PFLDH (3D7 PFLDH [4]) | IC50 [5] [nM] | IC50 (PKG) [nM] | PCT_INHIB_HEPG2 (HepG2 cells; [9]) [%] | PCT_IHB_3D7 (P. falciparum 3D7 cells; [10]) [%] | pXC50_3D7 (P. falciparum 3D7 cells; [10]) | PCT_INHB_DD2 (DD2 [6]) [%] | PCT_INHIB_3D7_PFLDH (3D7 PFLDH [7]) [%]
1 | NCCNC(=O)c1ccc(-c2cnc3[nH]cc(-c4ccc(C(N)=O)cc4)c3c2)cc1 [TCMDC-132359] | 24 | 931 | 2 | 99 | 6.7676 | 98 | 0 | – | – | – | – | – | – | –
2 | NCCNS(=O)(=O)c1ccc(-c2ccnc3[nH]c(-c4ccncc4)cc23)cc1.O=C(O)C(F)(F)F [TCMDC-133364] | 422 | 207 | 0 | 96 | 6.076 | 95 | 3 | – | – | – | – | – | – | –
3 | Cn1cc(-c2ccnc3[nH]c(-c4cccc(CNC5CCC(O)CC5)c4)cc23)cn1.O=C(O)C(F)(F)F (stereo not drawn) [TCMDC-133805] | 46 | 177 | 48 | 95 | 6.044 | 82 | 2 | – | – | – | – | – | – | –
4 | CN(C)Cc1cccc(-c2cc3c(-c4cnn(C)c4)c(Cl)cnc3[nH]2)c1 [TCMDC-134147] | 402 | 128 | 75 | 96 | 6.043 | 21 | 0 | – | – | – | – | – | – | –
5 | Cc1cccc(Nc2nc(N[C@@H]3CCCNC3)nc3cc[nH]c(=O)c23)c1.O=C(O)C(F)(F)F [TCMDC-134835] | 23 | – | – | – | – | – | – | 76 | 422 | 55 | 99 | 6.166 | 98 | 1
6 | Cc1cccc(Nc2nc(NCCCCN)nc3cc[nH]c(=O)c23)c1.O=C(O)C(F)(F)F [TCMDC-134946] | 566 | – | – | – | – | – | – | 166 | 1580 | 34 | 98 | 6.135 | 97 | 0
7 | COc1c(CN2CCCC2)cccc1-c1cc2c(-c3ccc(C(=O)O)c(C(C)C)c3)ccnc2[nH]1.O=C(O)C(F)(F)F [TCMDC-135050] | – | 541 | 56 | 99 | 6.357 | 98 | 0 | – | – | – | – | – | – | –
8 | O=C(O)C(F)(F)F.O=c1[nH]ccc2nc(N[C@@H]3CCNC3)nc(Nc3cc(Cl)cc(Cl)c3)c12 [TCMDC-135052] | 33 | – | – | – | – | – | – | 446 | 486 | 99 | 100 | 6.132 | 99 | 0
9 | NCCCNc1nc(Nc2cccc(C(N)=O)c2)c2c(=O)[nH]ccc2n1.O=C(O)C(F)(F)F [TCMDC-135053] | 750 | – | – | – | – | – | – | 967 | 7330 | 9 | 99 | 6.226 | 49 | 0
10 | NS(=O)(=O)c1cccc(Nc2nc(N[C@@H]3CCNC3)nc3cc[nH]c(=O)c23)c1.O=C(O)C(F)(F)F [TCMDC-135057] | 83 | – | – | – | – | – | – | 135 | 1850 | 7 | 99 | 6.027 | 98 | 0
11 | CCn1c(-c2nonc2N)nc2c(-c3cc4ccccc4s3)ncc(C(=O)N3CCC(N)C3)c21.O=C(O)C(F)(F)F (stereo not drawn) [TCMDC-135281] | – | – | – | – | – | – | – | 89 | 6940 | 99 | 98 | 6.06 | 66 | 5
12 | NS(=O)(=O)c1ccc(Nc2nccc(-c3c(-c4cccc(NC(=O)c5c(F)cccc5F)c4)nn4ccccc34)n2)cc1 [TCMDC-135528] | 48 | 140 | 83 | 93 | 6.118 | 89 | 0 | – | – | – | – | – | – | –
13 | CCn1c(-c2nonc2N)nc2c(-c3ccccc3)ncc(OCCCNCCCN3CCOCC3)c21.O=C(O)C(F)(F)F [TCMDC-135858] | 42 | – | – | – | – | – | – | 38 | 126 | 28 | 100 | 6.174 | 91 | 0
14 | CCn1c(-c2nonc2N)nc2c(-c3cccc(Cl)c3)ncc(OCCCNCCc3c[nH]cn3)c21.O=C(O)C(F)(F)F [TCMDC-135919] | 138 | – | – | – | – | – | – | 46 | 2210 | 16 | 100 | 6.007 | 98 | 0
15 | CCn1c(-c2nonc2N)nc2c(-c3cccc(Cl)c3)ncc(OCCCNCc3cnc(C)nc3N)c21.O=C(O)C(F)(F)F [TCMDC-135956] | 271 | – | – | – | – | – | – | 145 | 9210 | 21 | 93 | 5.996 | 48 | 3
16 | CCn1c(-c2nonc2N)nc2c(-c3ccccc3)ncc(OCCCCNCCc3ncc[nH]3)c21.O=C(O)C(F)(F)F [TCMDC-136000] | 94 | – | – | – | – | – | – | 43 | 953 | 34 | 92 | 6.07 | 42 | 0
17 | O=C(NC1CC1)c1ccc(Nc2nccc(-c3c(-c4cccc(NC(=O)c5c(F)cccc5F)c4)nn4ccccc34)n2)cc1 [TCMDC-136002] | 26 | – | 84 | 94 | 6.386 | 96 | 0 | – | > 10000 | – | – | – | – | –
18 | CCn1c(-c2nonc2N)nc2c(-c3cccc(NC(=O)Nc4ccc(C(F)(F)F)cc4)c3)ncc(OCCCN)c21.O=C(O)C(F)(F)F [TCMDC-136179] | 959 | – | – | – | – | – | – | 30 | 264 | 36 | 94 | 5.981 | 63 | 6
19 | CCn1c(-c2nonc2N)nc2c(-c3cccc(NC(=O)Nc4ccc5c(c4)CCC5)c3)ncc(OCCCN)c21.O=C(O)C(F)(F)F [TCMDC-136191] | 85 | – | – | – | – | – | – | 59 | 5050 | 26 | 99 | 6.106 | 94 | 0
20 | Cl.NCCCOc1cnc(-c2ccccc2)c2nc(-c3nonc3N)n(CCc3ccccc3)c12 [TCMDC-136216] | 47 | – | – | – | – | – | – | – | > 10000 | 56 | 93 | 5.895 | 86 | 0
